Test [1] addresses T1, human GPR43 (Homo sapiens, UniProt O15552).
T1 sequence (O15552 1-330): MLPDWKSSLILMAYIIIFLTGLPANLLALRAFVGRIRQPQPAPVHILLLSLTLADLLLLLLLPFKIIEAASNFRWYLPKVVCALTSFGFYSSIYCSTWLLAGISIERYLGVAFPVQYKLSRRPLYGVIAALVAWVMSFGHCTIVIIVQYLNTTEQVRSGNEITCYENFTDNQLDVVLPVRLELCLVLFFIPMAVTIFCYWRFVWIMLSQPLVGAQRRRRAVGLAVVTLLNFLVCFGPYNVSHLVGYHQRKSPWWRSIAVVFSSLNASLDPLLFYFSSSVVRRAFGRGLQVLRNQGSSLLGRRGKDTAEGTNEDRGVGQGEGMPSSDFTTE
Description: Accumulation of GTPγ[35S] binding on membranes from CHO-K1 cells expressing human GPR43. It counts as biochemical. The arrangement: expressed in transfected cells. The following applies: for activity on GTPγ[35S] binding / order of agonist potency: single concentration of each compound, FIG. 8. The protocol: For GPCRs such as GPR43, a measure of receptor activity is the binding of GTP by cell membranes containing receptors. In the method described by Traynor and Nahorski, 1995, Mol. Pharmacol. 47: 848-854, incorporated herein by reference, one essentially measures G-protein coupling to membranes by detecting the binding of labelled GTP. For GTP binding assays, membranes isolated from cells expressing the receptor are incubated in a buffer containing 20 mM HEPES, pH 7.4, 100 mM NaCl, and 10 mM MgCl2, 80 pM ^35S-GTPγS and 3 μM GDP. The assay mixture is incubated for 60 minutes at 30° C., after which unbound labelled GTP is removed by filtration onto GF/B filters. Bound, labelled GTP is measured by liquid scintillation counting. In order to assay for modulation of propionate-induced GPR43 activity, membranes prepared from cells expressing a GPR43 polypeptide are mixed with propionate, and the GTP binding assay is performed in the presence and absence of a candidate modulator of GPR43 activity. […] In this case, propionate-stimulated GTP binding is used as a standard. […] GTPase activity is measured by incubating the membranes containing a GPR43 polypeptide with γ^32P-GTP. Active GTPase will release the label as inorganic phosphate, which is detected by separation of free inorganic phosphate in a 5% suspension of activated charcoal in 20 mM H3PO4, followed by scintillation counting. Controls include assays using membranes isolated from cells not expressing GPR43 (mock-transfected), in order to exclude possible non-specific effects of the candidate compound.
The activity of acetate was examined in a membrane-based functional test.
The activity of other SCFA and related compounds (alcohols, aldehydes, cetone, di-acids . . . ) was evaluated using a single concentration of each in the membrane-cell based assay.

Test [2] deals with T1, human GPR43. As to the kind of experiment: Structure-activity relationships of SCFAs and related compounds on human GPR43 (FIG. 12). The arrangement: expressed in transfected cells. The following applies: compared with corresponding non-substituted active compounds.
The test system of test [3] is non related human G-protein coupled receptors. As to the kind of experiment: GTPγ[35S] binding on ten membrane preparations of CHO-K1 cells expressing non related human GPCRs. In kind it is biochemical. A general note: GTPγS is a poorly hydrolysed GTP analogue; its binding reports G protein activation.
In test [4] the test system is human polymorphonuclear (PMN) leukocytes. Description: Mobilization of intracellular calcium in human neutrophils (Fura-2). In kind it is cell-based. The following applies: for pEC50: FIG. 15 and 16, read-out: EC50 for increase of intracellular calcium. As to the method: The following experiments were conducted to test whether the human polymorphonuclear (PMN) leukocytes could be activated with acetate and propionate, since the receptor is strongly expressed in peripheral blood cells containing mainly PMNs. Activation was determined by the quantification of the intracellular calcium mobilized from internal pool after activation by acetate and propionate of the cell membrane receptor. PMN were purified from the venous blood of healthy volunteers. Cells were isolated according to established methods. For intracellular calcium measurements, the cells were loaded for 30 min at room temperature with Fura-2AM (Molecular Probes). […] Briefly, neutrophils suspensions (1×10^7 cells/ml) were incubated with 2 μM Fura-2/AM for 30 minutes at 37° C. The cells were then washed free of the extracellular probe, resuspended at 5×10^6 cells/ml and allowed to reequilibrate for 10 minutes at 37° C. Cells were then transferred to the thermostatted cuvette compartment (37° C.) of the fluorometer and the fluorescence monitored (excitation and emission […], 340 and 510 nm respectively).
In general terms: Calcium assays in cells follow changes in intracellular calcium, usually with a dye or a luminescent sensor.

Test [5] has as its system peripheral blood neutrophils. As to the kind of experiment: Chemotactic response of neutrophilic granulocytes (48-well chamber). In kind it is cell-based, human. Particulars: for shape of chemotactic dose-response: FIG. 17. As to the method:
Peripheral blood mononuclear cells were purified from buffy coats of healthy volunteers as previously described (Struyf S, De Meester I, Scharpe S, Lenaerts J P, Menten P, Wang J M, Proost P, Van Damme J., Eur J Immunol Apr. 28, 1998; 28 (4):1262-71). For intracellular calcium measurements, the cells were loaded for 30 min at room temperature with Fura-2AM (Molecular Probes). Calcium transients were monitored by a LS50B spectrofluorimeter (Perkin Elmer) as described (Grynkiewicz G, Poenie M, Tsien R Y., J Biol Chem Mar. 25, 1985;260(6):3440-50) at a final cell concentration of 10^6 cells/ml in buffer containing 125 μM probenecid. Chemotaxis was assessed in 48-well chambers using polycarbonate filter membranes with 3 μm (mesh size) (Neuroprobes, Inc.). The results are represented as chemotactic index (FIG. 17).
Freshly isolated peripheral blood neutrophils from healthy donors were tested for their chemotactic response to sodium acetate and propionate.

In test [6] the target is T1, human GPR43. The following applies: library at 1-100 μM; confirmed by a dose response curve. As to the method: (§1) Additional related compounds were tested using the same cells.
Test [7] concerns other GPCRs, such as motilin or histamine H1 receptor. The following applies: Gqi only or cDNAs for other GPCRs; data not shown.
Test [8] concerns human polymorphonuclear (PMN) leukocytes. The following applies: Naccache et al, Fonteriz et al, Nakao et al; cited from earlier work.
The target in test [9] is T1, human GPR43. Description: Inhibition of forskolin-stimulated adenylate cyclase activity in CHO-K1 cells stably expressing human GPR43. In kind it is cell-based. The arrangement: expressed in transfected cells. The protocol:
as §1
SCFA, ranging from 1 carbon to 4 carbon, were tested on CHO-K1 cells stably expressing the human GPR43 for their ability to inhibit the activity of adenylate cyclase stimulated with forskolin.

Test [10] concerns the target T1, human GPR43. Description: Production of inositol phosphates in CHO-K1 cells stably expressing human GPR43. It counts as cell-based. More on the design: expressed in transfected cells. Particulars: PTX-pretreatment prior to stimulation; FIG. 10.
Where [11] appears, read: CHO-K1 cells stably expressing human GPR43, FIG. 4.

As a reminder, the pEC50 is the negative decadic logarithm of the EC50, by convention in mol/L.

pEC50: −log10 of the molar value. Like-named read-outs stand apart in the source and are kept apart here.

Regarding `CC(O)CC(=O)O` (racemic) [DL-β-hydroxybutyrate], in test [1], the “activity on GTPγ[35S] binding” value is “Inactive”. Besides, the “activity on human GPR43” value in test [2] is given as “is not active”.

Consider `NCCCC(=O)O` [GABA], for which the “activity on GTPγ[35S] binding” value in test [1] was “Inactive”.

For the molecule `N[C@@H](CCC(=O)O)C(=O)O` [L-glutamate], in test [1], the “activity on GTPγ[35S] binding” value is recorded as “Inactive”. Further, the “activity on human GPR43” value in [2] is “abolished the signal”.

Turning to `CC=O` [acetaldehyde], in [1], the “activity on GTPγ[35S] binding” value was “Inactive”.

In the case of `CC(=O)O` [acetate], the “stimulation of GTPγ[35S] binding in membranes with non related receptors” value in test [3] is “not able to stimulate any binding”. In test [4], the “effect of increasing concentration on intracellular calcium” value is reported as “concentration-dependent increase of intracellular calcium” and the negative-log EC50 (pEC50) was 3.27. The “shape of chemotactic dose-response” value in [5] is listed as “classical bell-shaped dose-response curve”. For the same molecule, in [6], the “result of ligand screening” value is “specific activity”. Also, the “activation of control cells (inositol phosphates)” value in test [7] is reported as “not activated”. Further, the “EC50 for cytoplasmic calcium mobilization in PMN” value in test [8] is “millimolar”. For the same molecule, in test [9], the “decrease of forskolin-stimulated adenylate cyclase activity” value (from here on “decrease”) was found to be 75% and the “rank order of potency to inhibit forskolin-stimulated adenylate cyclase” value is given as “C2 (acetate)≧C3 (propionate)>C4 (butyrate)>>C1 (formate)”. Further, the “observed effect on adenylate cyclase after overnight preincubation with Pertussis Toxin (PTX)” value in test [9] (FIG. 5) is reported as “totally abolished”. Moreover, the “activation of GTPγ[35S] binding, sodium versus ammonium salt” value in test [1] (assay buffer containing 120 mM sodium or potassium, FIG. 7) is on record as “equipotent”. In test [1] (compared with the cell-based cAMP assay, FIG. 6), the “potency on accumulation of GTPγ[35S] binding” value is on record as “comparable to that observed in the cell-based functional assay monitoring cAMP levels”. Besides, the “order of agonist potency” value in [1] is given as “acetate=propionate>n-butyrate=isobutyrate=n-valerate=caproate>>formate>>pyruvate=acetoacetate”. The “PTX sensitivity of the accumulation of total inositol phosphates” value in test [10] is reported as “non PTX sensitive”.

In the case of `CC(=O)CC(=O)O` [acetoacetate], the “order of agonist potency” value in test [1] was “acetate=propionate>n-butyrate=isobutyrate=n-valerate=caproate>>formate>>pyruvate=acetoacetate”. Further, the “activity on human GPR43” value in test [2] was “decreased but consistent activity”.

As for `CC(C)=O` [acetone], in test [1], the “activity on GTPγ[35S] binding” value is “Inactive”.

On to `CCCC(=O)O` [butyrate], for which the “decrease” value in test [9] (setting [11]) was 75%.

Consider `CCCCCC(=O)[O-].CCCCCC(=O)[O-].[Ca+2]` [caproate], for which the “order of agonist potency” value in test [1] is recorded as “acetate=propionate>n-butyrate=isobutyrate=n-valerate=caproate>>formate>>pyruvate=acetoacetate”.

As to `O=C(O)CC(O)(CC(=O)O)C(=O)O` [citrate], the “activity on GTPγ[35S] binding” value in test [1] is recorded as “Inactive”. Moreover, the “activity on human GPR43” value in test [2] is “abolished the signal”.

Consider `CCO` [ethanol], for which, in test [1], the “activity on GTPγ[35S] binding” value is “Inactive”.

As for `O=CO` [formate], in test [9], the “decrease” value worked out at 75% and the “rank order of potency to inhibit forskolin-stimulated adenylate cyclase” value is “C2 (acetate)≧C3 (propionate)>C4 (butyrate)>>C1 (formate)”. Also, the “activation of the human receptor (maximal response compared to acetate and propionate)” value in test [1] (data not shown) is “partly activate”. In [1], the “order of agonist potency” value is recorded as “acetate=propionate>n-butyrate=isobutyrate=n-valerate=caproate>>formate>>pyruvate=acetoacetate”.

Regarding `NCC(=O)O` [glycine], the “activity on human GPR43” value in [2] was “decreased activity without abolishing it”.

Consider `CC(C)C(=O)O` [isobutyrate], for which the “order of agonist potency” value in test [1] is listed as “acetate=propionate>n-butyrate=isobutyrate=n-valerate=caproate>>formate>>pyruvate=acetoacetate”.

`O=C(O)CC(=O)O` [malonate]: the “activity on GTPγ[35S] binding” value in test [1] is “Inactive”. The “activity on human GPR43” value in test [2] is recorded as “abolished the signal”.

With `CCCCC(=O)O` [n-valerate], in test [1], the “order of agonist potency” value is “acetate=propionate>n-butyrate=isobutyrate=n-valerate=caproate>>formate>>pyruvate=acetoacetate”.

Regarding `O=C(O)C(=O)O` [oxalate], the “activity on GTPγ[35S] binding” value in test [1] was “Inactive”. The “activity on human GPR43” value in test [2] was “abolished the signal”.

Take `CCC(=O)O` [propionate]: in test [3] (adenosine A1, adrenergic 2C, CRF 1, CCR3, LTB4, M4, neuropeptide FF 2S, opioid 3, 5-HT1A, sst5 receptors), the “stimulation of GTPγ[35S] binding in membranes with non related receptors” value is reported as “not able to stimulate any binding”. For the same molecule, the “effect of increasing concentration on intracellular calcium” value in [4] was “concentration-dependent increase of intracellular calcium”. The negative-log EC50 (pEC50) in [4] (Leukocyte) was 3.27. For the same molecule, the “shape of chemotactic dose-response” value in [5] is recorded as “classical bell-shaped dose-response curve”. The “EC50 for cytoplasmic calcium mobilization in PMN” value in [8] was “millimolar”. The “decrease” value in test [9] (setting [11]) came to 75%. Moreover, the “rank order of potency to inhibit forskolin-stimulated adenylate cyclase” value in test [9] (SCFA from 1 carbon to 4 carbon, FIG. 4) was “C2 (acetate)≧C3 (propionate)>C4 (butyrate)>>C1 (formate)”. In addition, the “order of agonist potency” value in [1] is reported as “acetate=propionate>n-butyrate=isobutyrate=n-valerate=caproate>>formate>>pyruvate=acetoacetate”. For the same molecule, the “PTX sensitivity of the accumulation of total inositol phosphates” value in [10] was “non PTX sensitive”.

`N[C@@H](CO)C(=O)O` [serine]: the “activity on human GPR43” value in test [2] is given as “abolished the activity”.

As to `O=C(O)CCC(=O)O` [succinate], in test [1], the “activity on GTPγ[35S] binding” value is “Inactive”. For the same molecule, the “activity on human GPR43” value in test [2] is reported as “abolished the signal”.

Take f-met-leu-phe [fMLP]: in [5] (on average, data not shown), the “maximal chemotactic index relative to SCFA” value is “at least 3 fold”.

The values are drawn from patent US7303889B2, “Ligand for G-protein coupled receptor GPR43 and uses thereof” (Euroscreen S.A., priority 2002, dated 2007).
